Reference: patent publication US5208242A, “5-substituted-4-phenyl-5H-imidazo[4,5-c]pyridine derivatives” (G. D. Searle & Co., priority 1992, dated 1993)
pIC50: −log10 of the molar value.

Molecular target: T1, PAF receptor (Homo sapiens, UniProt P25105)
T1 construct: tissue Lifesource, Inc. (Glenview, Ill.); host or cells: human packed platelets (washed, freeze-thawed membrane preparation)
Assay: Inhibition of the Specific Binding of [^3 H]PAF to Human Platelet Membrane Preparation
Conditions: 0.75 nM [^3 H]PAF, 30 minutes at 24° C., pH 7.4
Description: Inhibition of the Specific Binding of [^3 H]PAF to Human Platelet Membrane Preparation.
Human packed platelets were obtained from Lifesource, Inc. (Glenview, Ill.) and washed 3 times with 10 mM Trizma pH 7.0, 2 mM EDTA (dipotassium salt), 150 mM KCl and then once with 10 mM Trizma 7.4, 20 mM CaCl2. The platelets were broken by freezing in a dry ice-ethanol bath, followed by thawing in 24° C. water baths. The preparation was centrifugation (40,000×g, 20 minutes, 4' C) and the pellet resuspended in 10 mM Trizma 7.4, 20 mM CaCl2, 5 mg/ml human albumin. Protein concentration in the platelet membrane preparation was determined by the Lowry method [O.H. Lowry et al. J. Biological Chemistry, 193, 265-275 (1951)]. Aliquots of the membrane preparation were stored at -70° C. Each preparation was characterized for PAF receptor number and dissociation constant (Kd). In binding assays 5 μl of test compound, solubilized in DMSO, was added to polypropylene tubes along with 0.75 nM [^ 3 H]PAF and 200 mcl [0.075 nM] of membranes and 95 μl 10 mM Trizma 7.4, […], 5 mg/ml human albumin. Tubes were incubated for 30 minutes at 24° C. […] Filters were prepared and counted for a scintillation counter. […] The IC50 values were determined by the Allfit program using percent displacement data. […]

T1 sequence (P25105 whole entry): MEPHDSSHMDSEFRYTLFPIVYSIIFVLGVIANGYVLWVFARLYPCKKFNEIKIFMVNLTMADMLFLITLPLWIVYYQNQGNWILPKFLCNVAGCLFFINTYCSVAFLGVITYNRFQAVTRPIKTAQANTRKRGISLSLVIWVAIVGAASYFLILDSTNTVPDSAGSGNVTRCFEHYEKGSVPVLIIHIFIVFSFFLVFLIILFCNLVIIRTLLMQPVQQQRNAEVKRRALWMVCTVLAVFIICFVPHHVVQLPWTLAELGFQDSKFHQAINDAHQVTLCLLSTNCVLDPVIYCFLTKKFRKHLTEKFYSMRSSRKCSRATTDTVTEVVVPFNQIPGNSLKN

COc1cc(C(=O)N(C(C)C)C2CCCCC2)ccc1Cn1ccc2ncnc-2c1-c1ccccc1 [Compound 9, N-cyclohexyl-3-methoxy-N-(1-methylethyl)-4-[(4-phenyl-5H-imidazo[4,5-c]pyridin-5-yl)methyl]benzamide] gave a pIC50 of 5.98.
